What was measured:
[1] = tested on: antibodies in sera from SARS patients (sera 1a, 1b, 2, 6, 37, 62, London, SARS-yellow, SARS-green); format: binding, human; design: Binding of serum 6 to linear peptides of protein X1 of SARS-CoV Urbani / Binding of serum 37 to linear peptides of protein X1 of SARS-CoV Urbani / Binding of serum 6 to looped/cyclic peptide (PEPSCAN-ELISA) / Binding of serum 37 to looped/cyclic peptide (PEPSCAN-ELISA) / Binding of serum 37 to looped/cyclic peptides of protein X1 of SARS-CoV Urbani / Binding of serum 6 to linear peptides of protein X2 / Binding of serum 37 to linear peptides of protein X2 / Binding of serum 37 to looped/cyclic peptides of protein X2 of SARS-CoV Urbani / Binding of serum 6 to linear peptides of protein M of SARS-CoV Urbani / Binding of serum 37 to linear peptides of protein M of SARS-CoV Urbani / Binding of serum 6 to looped/cyclic peptides of protein M of SARS-CoV Urbani / Binding of serum 37 to looped/cyclic peptides of protein M of SARS-CoV Urbani / Binding of serum 6 to linear peptides of protein X3 of SARS-CoV Urbani / Binding of serum 37 to linear peptides of protein X3 of SARS-CoV Urbani / Binding of serum 37 to looped/cyclic peptides of protein X3 of SARS-CoV Urbani / Binding of serum 6 to linear peptides of protein X4 of SARS-CoV Urbani / Binding of serum 37 to linear peptides of protein X4 of SARS-CoV Urbani / Binding of serum 37 to looped/cyclic peptides of protein X4 of SARS-CoV Urbani / Binding of serum 6 to linear peptides of protein X5 of SARS-CoV Urbani / Binding of serum 37 to linear peptides of protein X5 of SARS-CoV Urbani / Binding of serum 37 to looped/cyclic peptides of protein X5 of SARS-CoV Urbani / Binding of serum 6 to linear peptides of protein N of SARS-CoV Urbani / Binding of serum 37 to linear peptides of protein N of SARS-CoV Urbani / Binding of serum 6 to linear peptide (PEPSCAN-ELISA) / Binding of serum 1a to looped/cyclic peptides of protein N of SARS-CoV Urbani / Binding of serum 1b to looped/cyclic peptides of protein N of SARS-CoV Urbani / Binding of serum 2 to looped/cyclic peptides of protein N of SARS-CoV Urbani / Binding of serum 6 to looped/cyclic peptides of protein N of SARS-CoV Urbani / Binding of serum 37 to looped/cyclic peptides of protein N of SARS-CoV Urbani / Binding of serum 62 to looped/cyclic peptides of protein N of SARS-CoV Urbani / Binding of serum London to looped/cyclic peptides of protein N of SARS-CoV Urbani / Binding of serum SARS-green to looped/cyclic peptides of protein N of SARS-CoV Urbani: unit not given here
[2] = tested on: control sera (pooled serum of ten healthy LUMC hospital workers; commercial negative donor pooled serum from the Dutch bloodbank); format: binding, human; design: Binding of Control serum LUMC to linear peptides / Binding of Control serum Blood-bank to linear peptides / Binding of Control serum LUMC to looped peptides / Binding of Control Serum Blood-Bank to Looped peptides / Binding of Control serum LUMC to linear peptides of the protein M of SARS-CoV Urbani / Binding of Control serum Blood-bank to linear peptides of the protein M of SARS-CoV Urbani / Binding of Control serum LUMC to looped peptides of the protein M of SARS-CoV Urbani / Binding of Control Serum Blood-Bank to Looped peptides of the protein M of SARS-CoV Urbani: unit not given here
[3] = tested on: rabbit serum obtained by immunizing a rabbit with the SARS-CoV strain Frankfurt 1; format: binding; design: Binding of a rabbit serum to linear peptides / Binding of a rabbit serum to looped peptides / Rabbit serum linear peptides / Rabbit serum looped peptides / Binding of a rabbit serum to linear peptides of protein N of SARS-CoV Urbani (Rabbit serum linear peptides) / Binding of a rabbit serum to looped/cyclic peptides of protein N of SARS-CoV Urbani (Rabbit serum looped peptides): unit not given here

| Sequence | Binding of serum 1a to linear peptides of protein M of SARS-CoV Urbani [1] | Binding of serum 1b to linear peptides of protein M of SARS-CoV Urbani [1] | Binding of serum 2 to linear peptides of protein M of SARS-CoV Urbani [1] | Binding of serum 6 to linear peptides of protein M of SARS-CoV Urbani [1] | Binding of serum 37 to linear peptides of protein M of SARS-CoV Urbani [1] | Binding of serum 62 to linear peptides of protein M of SARS-CoV Urbani [1] | Binding of serum London to linear peptides of protein M of SARS-CoV Urbani [1] | Binding of serum SARS-green to linear peptides of protein M of SARS-CoV Urbani [1] | Binding of serum SARS-yellow to linear peptides of protein M of SARS-CoV Urbani [1] | Recognition of the peptide by sera of SARS-CoV infected individuals, and form (linear, looped/cyclic) in which it is recognized [1] | Binding of Control Serum Blood-Bank to Looped peptides of the protein M of SARS-CoV Urbani [2] | Binding of Control serum Blood-bank to linear peptides of the protein M of SARS-CoV Urbani [2] | Binding of Control serum LUMC to linear peptides of the protein M of SARS-CoV Urbani [2] | Binding of Control serum LUMC to looped peptides of the protein M of SARS-CoV Urbani [2] | Rabbit serum linear peptides [3] | Rabbit serum looped peptides [3] | Binding of Control Serum Blood-Bank to Looped peptides [2] | Binding of Control serum Blood-bank to linear peptides [2] | Binding of Control serum LUMC to linear peptides [2] | Binding of Control serum LUMC to looped peptides [2] | also measured |
| --- | --- | --- | --- | --- | --- | --- | --- | --- | --- | --- | --- | --- | --- | --- | --- | --- | --- | --- | --- | --- | --- |
| NRFLYIIKLVFLWLL | 0.7 | 0.5 | 0.5 | 0.3 | 0.7 | 0.7 | 0.3 | 0.3 | 0.1 | recognized in looped/cyclic form | 0.7 | 0.7 | 0.3 | 0.6 | 0.4 | 0.3 | – | – | – | – | – |
| NRNRFLYIIKLVFLW | 0.7 | 0.4 | 0.6 | 0.3 | 0.7 | 0.7 | 0.3 | 0.3 | 0.1 | recognized in looped/cyclic form | 0.8 | 0.7 | 0.4 | 0.7 | 0.5 | 0.4 | – | – | – | – | – |
| NRYRIGNYKLNTDHA | 0.8 | 0.6 | 0.5 | 0.3 | 0.5 | 0.6 | 0.2 | 0.2 | 0.1 | – | 0.7 | 0.2 | 0.2 | 0.7 | 0.2 | 0.3 | – | – | – | – | Binding of serum 1a to looped/cyclic peptides of protein M of SARS-CoV Urbani [1]: 0.8; Binding of serum 1b to looped/cyclic peptides of protein M of SARS-CoV Urbani [1]: 0.6; Binding of serum 2 to looped/cyclic peptides of protein M of SARS-CoV Urbani [1]: 0.5; Binding of serum 6 to looped/cyclic peptides of protein M of SARS-CoV Urbani [1]: 0.7; Binding of serum 37 to looped/cyclic peptides of protein M of SARS-CoV Urbani [1]: 0.6; Binding of serum 62 to looped/cyclic peptides of protein M of SARS-CoV Urbani [1]: 0.5; Binding of serum London to looped/cyclic peptides of protein M of SARS-CoV Urbani [1]: 0.4; Binding of serum SARS-green to looped/cyclic peptides of protein M of SARS-CoV Urbani [1]: 0.3; Binding of serum SARS-yellow to looped/cyclic peptides of protein M of SARS-CoV Urbani [1]: 0.9 |
| NTYSTAWLCALGKVL | – | – | – | – | – | – | – | – | – | – | – | – | – | – | 0.6 | 0.5 | 0.4 | 0.8 | 0.4 | 0.5 | Binding of serum 1a to linear peptides of protein X5 of SARS-CoV Urbani [1]: 0.7; Binding of serum 1a to looped/cyclic peptides of protein X5 of SARS-CoV Urbani [1]: 0.4; Binding of serum 1b to linear peptides of protein X5 of SARS-CoV Urbani [1]: 0.4; Binding of serum 1b to looped/cyclic peptides of protein X5 of SARS-CoV Urbani [1]: 0.3; Binding of serum 2 to linear peptides of protein X5 of SARS-CoV Urbani [1]: 0.5; Binding of serum 2 to looped/cyclic peptides of protein X5 of SARS-CoV Urbani [1]: 0.5; Binding of serum 6 to linear peptides of protein X5 of SARS-CoV Urbani [1]: 0.6; Binding of serum 6 to looped/cyclic peptides of protein X5 of SARS-CoV Urbani [1]: 1.1; Binding of serum 37 to linear peptides of protein X5 of SARS-CoV Urbani [1]: 0.6; Binding of serum 37 to looped/cyclic peptides of protein X5 of SARS-CoV Urbani [1]: 0.5; Binding of serum 62 to linear peptides of protein X5 of SARS-CoV Urbani [1]: 0.7; Binding of serum 62 to looped/cyclic peptides of protein X5 of SARS-CoV Urbani [1]: 0.6; Binding of serum London to linear peptides of protein X5 of SARS-CoV Urbani [1]: 0.6; Binding of serum London to looped/cyclic peptides of protein X5 of SARS-CoV Urbani [1]: 2.3; Binding of serum SARS-green to linear peptides of protein X5 of SARS-CoV Urbani [1]: 0.4; Binding of serum SARS-green to looped/cyclic peptides of protein X5 of SARS-CoV Urbani [1]: 0.3; Binding of serum SARS-yellow to linear peptides of protein X5 of SARS-CoV Urbani [1]: 0.3; Binding of serum SARS-yellow to looped/cyclic peptides of protein X5 of SARS-CoV Urbani [1]: 0.6 |
| NVPLRGTIVTRPLME | 0.8 | 0.6 | 0.4 | 0.3 | 0.7 | 0.8 | 0.3 | 0.4 | 0.1 | recognized in looped/cyclic form | 0.7 | 0.6 | 0.4 | 0.9 | 0.3 | 0.5 | – | – | – | – | – |
| NVQIHTIDGSSGVAN | – | – | – | – | – | – | – | – | – | – | – | – | – | – | – | – | 0.4 | 0.5 | 0.5 | 0.4 | Binding of serum 1a to linear peptides of protein X1 of SARS-CoV Urbani [1]: 0.7; Binding of serum 1a to looped/cyclic peptides of protein X1 of SARS-CoV Urbani [1]: 0.2; Binding of serum 1b to linear peptides of protein X1 of SARS-CoV Urbani [1]: 0.5; Binding of serum 1b to looped/cyclic peptides of protein X1 of SARS-CoV Urbani [1]: 0.2; Binding of serum 2 to linear peptides of protein X1 of SARS-CoV Urbani [1]: 0.5; Binding of serum 2 to looped/cyclic peptides of protein X1 of SARS-CoV Urbani [1]: 0.1; Binding of serum 6 to linear peptides of protein X1 of SARS-CoV Urbani [1]: 0.4; Binding of serum 6 to looped/cyclic peptides of protein X1 of SARS-CoV Urbani [1]: 0.1; Binding of serum 37 to linear peptides of protein X1 of SARS-CoV Urbani [1]: 0.7; Binding of serum 37 to looped/cyclic peptides of protein X1 of SARS-CoV Urbani [1]: 0.3; Binding of serum 62 to linear peptides of protein X1 of SARS-CoV Urbani [1]: 0.6; Binding of serum 62 to looped/cyclic peptides of protein X1 of SARS-CoV Urbani [1]: 0.3; Binding of serum London to linear peptides of protein X1 of SARS-CoV Urbani [1]: 0.3; Binding of serum London to looped/cyclic peptides of protein X1 of SARS-CoV Urbani [1]: 0.2; Binding of serum SARS-green to linear peptides of protein X1 of SARS-CoV Urbani [1]: 0.3; Binding of serum SARS-green to looped/cyclic peptides of protein X1 of SARS-CoV Urbani [1]: 0.2; Binding of serum SARS-yellow to linear peptides of protein X1 of SARS-CoV Urbani [1]: 0.4; Binding of serum SARS-yellow to looped/cyclic peptides of protein X1 of SARS-CoV Urbani [1]: 0.1; Binding of a rabbit serum to linear peptides [3]: 0.1; Binding of a rabbit serum to looped peptides [3]: 0.3 |

Reference: patent US20070128217A1 (priority 2003, published 2007)
